Results from patent publication US20230114143A1, “METHOD OF TREATING THE SCALP” (Conopco, Inc., d/b/a UNILEVER, priority 2020, published 2023).
Counter-ions that a name gives are not always drawn.

Key:
[1] = system: differentiated keratinocytes; experiment: Microarray gene expression in differentiated primary human epidermal keratinocytes dosed with piroctone olamine; format: cell-based; conditions: 7.5 µM, 24 hours
Method: Primary human epidermal keratinocytes were obtained from Lonza. Cells were cultured in monolayer in KGM-Gold medium. For the experiment keratinocytes were differentiated by incubating for five days in KGM-Gold medium supplemented with 1.2 mM calcium chloride. Piroctone olamine was supplied by Sigma. Differentiated keratinocyte cultures were dosed with 7.5 µM piroctone olamine and 0.1% ethanol (Group 1, n=4), or with 0.1% ethanol only (Group 2, n=4) and incubated for 24 hours. Cells were then lysed in RLT buffer and subjected to RNA extraction using Qiagen RNeasy Micro Kit according to manufacturer’s instructions. The levels of gene expression were determined using Agilent SurePrint G3 Human Gene Expression 8x60k v3 Microarrays in conjunction with Agilent SureHyb hybridisation and SureScan High-Resolution scanning technology, in accordance with manufacturer’s protocol. Microarray data processing and statistical analysis was carried out in Agilent GeneSpring GX14 software. To identify differentially expressed genes in piroctone olamine treated cultures (Group 1) compared to vehicle control cultures (Group 2), t-test was applied (p≤0.05) with or without Benjamini-Hochberg false discovery rate correction (FDR≤0.05).

[2] = system: ex vivo human skin explants; experiment: RNA sequencing gene expression in NativeSkin ex vivo human skin explants treated topically with piroctone olamine; format: cell-based; conditions: 24 hours
Method: Human ex vivo skin model production and piroctone olamine treatment were conducted by Genoskin (France). NativeSkin models of 15 mm diameter ex vivo human skin explants with silicon rings were produced from three donors and cultured in NativeSkin culture medium under 5% CO2 humidified atmosphere in 37° C. Skin explants were treated topically with 50 ul of solution containing 30 uM piroctone olamine in PBS with 1% ethanol (Group 1, n=3), or control PBS solution containing 1% ethanol (Group 2, n=3), and were incubated for 24 hours. Following one day of topical treatment, piroctone olamine and control solutions were removed using cotton swabs and each model was unmolded from silicon ring and re-punch at 12 mm diameter. Half of each skin biopsy was processed for RNA using OMNI-TH Rotor Stator tissue homogeniser and Qiagen RNeasy Fibrous Tissue RNA Mini Kit according to manufacturer’s instructions. RNA sequencing was used for gene expression analysis. Lexogen QuantSeq3′ FWD libraries were prepared from RNA samples and sequenced via single read (1x75 bp) performed using NextSeq 500/550 Mid-Output Kit on the NextSeq 500 Illumina platform. FASTQ data files were then uploaded to the BlueBee genomic platform and read-trimming, alignment, and read count were performed using QuantSeq data processing pipeline. Differential gene expression analysis for Group 1/Group 2 comparison was run in Bluebee genomic platform using QuantSeq DE pipeline (FDR corrected p≤0.05).

[3] = vs 0.1% ethanol control, Comeodesmosome formation
[4] = vs 0.1% ethanol control, Cornified envelop formation
[5] = vs 0.1% ethanol control, Tight junction formation
[6] = 30 uM topical in PBS with 1% ethanol, vs control, Tight junction formation

## Cc1cc(CC(C)CC(C)(C)C)n(O)c(=O)c1 (stereo not shown) [piroctone olamine, 1-hydroxy-4-methyl-6-(2,4,4-trimethylpentyl)-2(1H) pyridinone monoethanolamine salt]
[1]; differentiated keratinocytes
  gene expression of epidermal barrier biomarkers compared to control (in words): clear increase in gene expression
[1]; [3]
  Fold Change (Group ⅟Group 2) gene expression, Desmocolin 2 (DSC2): 2.49
  Fold Change (Group ⅟Group 2) gene expression, Desmoglein 4 (DSG4): 2.44
  Fold Change (Group ⅟Group 2) gene expression, Plakophilin 1 (PKP1): 1.75
[1]; vs 0.1% ethanol control, Comeodesmosome formation, not significant
  Fold Change (Group ⅟Group 2) gene expression, Comeodesmosin (CDSN): 1.20
[1]; [4]
  Fold Change (Group ⅟Group 2) gene expression, Involucrin (IVL): 1.40
  Fold Change (Group ⅟Group 2) gene expression, Late cornified envelope 3A (LCE3A): 2.58
  Fold Change (Group ⅟Group 2) gene expression, Late cornified envelope 3B (LCE3B): 1.67
  Fold Change (Group ⅟Group 2) gene expression, Late cornified envelope 3C (LCE3C): 2.71
  Fold Change (Group ⅟Group 2) gene expression, Small proline-rich protein 2D (SPRR2D): 1.52
[1]; [5]
  Fold Change (Group ⅟Group 2) gene expression, Claudin 4 (CLDN4): 1.76
  Fold Change (Group ⅟Group 2) gene expression, Claudin 7 (CLDN7): 1.65
  Fold Change (Group ⅟Group 2) gene expression, Claudin 17 (CLDN17): 2.99
  Fold Change (Group ⅟Group 2) gene expression, Claudin 25 (CLDN25): 2.05
[1]; vs 0.1% ethanol control, Tight junction formation, not significant
  Fold Change (Group ⅟Group 2) gene expression, Zona Occludens 1 (ZO1 (TJP1)): 1.3
[2]; 30 uM topical in PBS with 1% ethanol, vs control, Cornified envelop formation
  Fold Change (Group 1/Group 2) gene expression, Involucrin (IVL): 2.7
[2]; [6]
  Fold Change (Group 1/Group 2) gene expression, Claudin 1 (CLDN 1): 2.1
  Fold Change (Group 1/Group 2) gene expression, Zona Occludens 2 (ZO2 (TJP2)): 3.5
[2]; 30 uM topical, human skin explants
  gene expression of epidermal barrier biomarkers compared to control (in words): increase in gene expression
